Data on 15 compounds can be found in EP4122499A1, “FIBROBLAST ACTIVATION PROTEIN INHIBITORS AND USE THEREOF” (3B Pharmaceuticals GmbH, priority 2021, dated 2023).

Broadly, the pKD is the negative decadic logarithm of the KD, by convention in mol/L.

The structures appear in SMILES notation.

Data set [1] can be described thus: Plasma stability assay, mouse plasma. In kind it is in vitro ADME. The note with it: 37°C. Here is the method: (§1) In order to determine the stability of selected compounds of the invention in human and mouse plasma, a plasma stability assay was carried out. Such plasma stability assay measures degradation of compounds of the present invention in blood plasma. This is an important characteristic of a compound as compounds, with the exception of pro-drugs, which rapidly degrade in plasma, generally show poor in vivo efficacy. […] The stability is sufficient for the diagnostic, therapeutic and theragnostic use of these compounds according to the present invention.
(§2) The plasma stability samples were prepared by spiking 50 µl plasma aliquots (all sodium citrate 3.8%) with 1 µl of a 0.5 mM compound stock solution in DMSO. After vortexing, the samples were incubated in a Thermomixer at 37°C for 4 or 6 hours. After incubation the samples were stored on ice until further treatment. All samples were prepared in duplicates.
A suitable internal standard was added to each sample (1 µl of a 0.5 mM stock solution in DMSO). Protein precipitation was performed using two different methods depending on the compound conditions as indicated in Table 8. • A) 250 µl of acetonitrile containing 1% trifluoroacetic acid was added. […] After incubation at room temperature for 30 min the precipitate was separated by centrifugation. To 100 µl of the supernatant 10 µl of 1% formic acid was added followed by further incubation at 60°C for 10 min to complete the formation of the zinc chelate, if the compound contains a free DOTA moiety.
The determination of the analyte in the clean sample solutions was performed on an Agilent 1290 UHPLC system coupled to an Agilent 6530 Q-TOF mass spectrometer. The chromatographic separation was carried out on a Phenomenex BioZen XB-C18 HPLC column (50 x 2 mm, 1.7 µm particle size) with gradient elution using a mixture of 0.1% formic acid in water as eluent A and acetonitrile as eluent B (2% B to 41% in 7 min, 800 µl/min, 40°C). Mass spectrometric detection was performed in positive ion ESI mode by scanning the mass range from m/z 50 to 3000 with a sampling rate of 2 / sec.
From the mass spectrometric raw data the ion currents for the double or triple charged monoisotopic signal was extracted for both, the compound and the internal standard.
(§3) Quantitation was performed by external matrix calibration with internal standard using the integrated analyte signals.
The result is stated as "% intact compound remaining after 4 h or 6 h" and means that from the amount of material at the start of the experiment the stated percentage is detected as unchanged material at the end of the experiment by LC-MS quantification. Since all compounds are more than 50% intact after at least 4 h they are considered as stable enough for diagnostic and therapeutic applications. Table 8: Results of the plasma stability assay

The target of data set [2] is T1, HEK-FAP cells (Homo sapiens, UniProt Q12884).
T1 construct: expressed in transfected cells; host or cells: HEK293
T1 sequence (Q12884 1-760): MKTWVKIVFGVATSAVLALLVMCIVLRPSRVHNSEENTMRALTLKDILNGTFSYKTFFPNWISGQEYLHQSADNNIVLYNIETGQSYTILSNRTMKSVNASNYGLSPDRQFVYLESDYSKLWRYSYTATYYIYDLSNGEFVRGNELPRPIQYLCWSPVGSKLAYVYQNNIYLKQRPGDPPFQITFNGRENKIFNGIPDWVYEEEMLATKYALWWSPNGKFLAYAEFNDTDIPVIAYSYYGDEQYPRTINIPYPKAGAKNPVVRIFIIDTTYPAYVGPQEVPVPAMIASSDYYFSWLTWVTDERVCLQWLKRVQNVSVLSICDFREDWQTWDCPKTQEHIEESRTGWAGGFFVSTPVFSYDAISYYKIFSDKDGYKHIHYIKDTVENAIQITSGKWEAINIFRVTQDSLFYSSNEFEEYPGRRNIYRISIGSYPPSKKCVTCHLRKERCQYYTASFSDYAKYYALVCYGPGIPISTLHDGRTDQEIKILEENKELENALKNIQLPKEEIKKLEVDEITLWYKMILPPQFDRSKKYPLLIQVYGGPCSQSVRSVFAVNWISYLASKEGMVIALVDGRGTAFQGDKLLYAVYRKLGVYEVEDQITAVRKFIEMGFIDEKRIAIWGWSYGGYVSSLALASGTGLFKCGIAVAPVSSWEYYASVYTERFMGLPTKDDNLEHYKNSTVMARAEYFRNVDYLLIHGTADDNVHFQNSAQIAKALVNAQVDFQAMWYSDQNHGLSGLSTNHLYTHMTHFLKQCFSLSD
Description: LigandTracer assay with 111In-labeled compounds. In kind it is binding. The note with it: 111In-labeled compound; for kon: association rate, read-out: ka. Here is the method:
HEK293 cells (human embryonic kidney cells) were engineered to express the human FAP. […] Cell concentrations were adjusted to 3 x 10^5 mL^-1, and 3.000 µL of the suspension was dispensed into a poly-lysine-coated, clear cell dish (10cm). Approximately 24 hours after re-seeding, the medium was replaced by assay medium (Ham's medium with 20 mM HEPES) containing 1 % FCS. The dish was placed in the LigandTracer® device and a baseline measurement was obtained using the LigandTracer® Control software (version 2.4). […] To determine the dissociation rate (kd) the cells were washed and subsequently incubated with fresh assay medium for several hours. […] Table 14 Results of the LigandTracer® assay

Data set [3] is described as follows: Plasma stability assay, human plasma. To be noted: 37°C, 6 h. The data set is classed as in vitro ADME. Here is the method:
as §1, §2
A suitable internal standard was added to each sample (1 µl of a 0.5 mM stock solution in DMSO). […]
as §3
The result is stated as "% intact compound remaining after 4 h or 6 h" and means that from the amount of material at the start of the experiment the stated percentage is detected as unchanged material at the end of the experiment by LC-MS quantification. […]

For `CS(=O)(=O)c1cccc(-c2ccc3nccc(C(=O)NCC(=O)N4CC(F)(F)C[C@H]4C#N)c3c2)c1` [Compound 3BP-3126], in data set [1] (4 h), the “% intact compound remaining after incubation” value (shortened to “% intact compound remaining”) is 78% (4 h).

For `CS(=O)(=O)c1cccc(-c2ccc3c(C(=O)NCC(=O)N4CC(F)(F)C[C@H]4C#N)ccnc3c2)c1` [Compound 3BP-3127], the “% intact compound remaining” value in data set [1] (4 h) is > 95% (4 h).

Turning to `CS(=O)(=O)c1ccc(-c2ccc3c(C(=O)NCC(=O)N4CCC[C@H]4C#N)ccnc3c2)cc1` [Compound 3BP-3128], in data set [1] (4 h), the “% intact compound remaining” value is recorded as > 95% (4 h).

Regarding `O=C(NCC(=O)N1CCC[C@H]1C(=O)c1nc2ccccc2o1)c1ccnc2c1=CCCC=2` [Compound 3BP-3205], in data set [1] (4 h), the “% intact compound remaining” value was > 95% (4 h).

`O=C(NCC(=O)N1CCC[C@H]1C(=O)c1ncco1)c1ccnc2ccccc12` [Compound 3BP-3208]: the “% intact compound remaining” value in data set [1] (4 h) is on record as 92% (4 h).

`O=C(O)CN1CCN(CC(=O)O)CCN(CC(=O)NCCCS(=O)(=O)c2ccc(-c3ccc4nccc(C(=O)NCC(=O)N5CCC[C@H]5C(=O)c5nc6ccccc6o5)c4c3)cc2)CCN(CC(=O)O)CC1` [Compound 3BP-3581, (S)-2,2',2"-(10-(2-(3-(4-(4-(2-(2-(benzo[d]oxazole-2-carbonyl)pyrrolidin-1-yl)-2-oxoethylcarbamoyl)quinolin-6-yl)phenylsulfonyl)propylamino)-2-oxoethyl)-1,4,7,10-tetraazacyclododecane-1,4,7-triyl)triacetic acid]: the “HL” value in data set [2] amounted to 345 ± 218 min.

For `CN(CCCN1CCN(C(=O)CN2CCN(CC(=O)O)CCN(CC(O)O)CCN(CC(=O)O)CC2)CC1)c1ccc2nccc(C(=O)NCC(=O)N3CC(F)(F)C[C@H]3C#N)c2c1` [Compound 3BP-4200, reference compound], in data set [2], the “HL” value came to 1798 ± 24 min and the pKD came out at 10.4 ± 0.0.

As for `O=C(O)CN1CCN(CC(=O)O)CCN(CC(=O)N2CCN(CCNC(=O)c3ccc(-c4ccc5nccc(C(=O)NCC(=O)N6CCC[C@H]6C(=O)c6nc7ccccc7o6)c5c4)cc3)CC2)CCN(CC(=O)O)CC1` [Compound 3BP-4663], in data set [2], the “HL” value is recorded as 1477 ± 2013 min, the pKD came out at 9.8 ± 0.7 and the kon was determined as 150000 M⁻¹ s⁻¹. Moreover, in data set [1] (6 h), the “% intact compound remaining” value is listed as 92% (6 h). Besides, the “% intact compound remaining” value in data set [3] is 89% (6 h).

Regarding `O=C(O)CN1CCN(CC(=O)O)CCN(CC(=O)N2CCN(CCNC(=O)c3cccc(-c4ccc5nccc(C(=O)NCC(=O)N6CCC[C@H]6C(=O)c6nc7ccccc7o6)c5c4)c3)CC2)CCN(CC(=O)O)CC1` [Compound 3BP-4664], in data set [2], the “HL” value is 1030 ± 1439 min, the pKD came to 9.3 ± 0.7 and the kon was determined as 160000 M⁻¹ s⁻¹.

As for `O=C(O)CN1CCN(CC(=O)O)CCN(CC(=O)N2CCN(CCNC(=O)c3ccc(-c4ccc5c(C(=O)NCC(=O)N6CCC[C@H]6C(=O)c6nc7ccccc7o6)ccnc5c4)cc3)CC2)CCN(CC(=O)O)CC1` [Compound 3BP-4665], in data set [2], the “HL” value was 22 ± 16 min, the pKD is recorded as 8.8 ± 0.2 and the kon was determined as 220000 M⁻¹ s⁻¹.

On to `O=C(O)CN1CCN(CC(=O)O)CCN(CC(=O)N2CCN(CCNC(=O)c3cccc(-c4ccc5c(C(=O)NCC(=O)N6CCC[C@H]6C(=O)c6nc7ccccc7o6)ccnc5c4)c3)CC2)CCN(CC(=O)O)CC1` [Compound 3BP-4694], for which, in data set [2], the “HL” value was determined as 3946 ± 1189 min, the pKD stood at 10.3 ± 0.1 and the kon was determined as 57000 M⁻¹ s⁻¹. For the same compound, the “% intact compound remaining” value in data set [1] (6 h) is 90% (6 h).

On to `O=C(O)CN1CCN(CC(=O)O)CCN(CC(=O)N2CCN(CCCOc3ccc4nccc(C(=O)NCC(=O)N5CCC[C@H]5C(=O)c5nc6ccccc6o5)c4c3)CC2)CCN(CC(=O)O)CC1` [Compound 3BP-4808], for which, in data set [2], the “HL” value is reported as 20 ± 5 min, the pKD came out at 8.2 ± 0.0 and the kon worked out at 94000 M⁻¹ s⁻¹.

`O=C(O)CN1CCN(CC(=O)O)CCN(CC(=O)N2CCN(CCCOc3ccc4nccc(C(=O)NCC(=O)N5C[C@@H](F)C[C@H]5C(=O)c5nc6ccccc6o5)c4c3)CC2)CCN(CC(=O)O)CC1` [Compound 3BP-4809]: in data set [2], the “HL” value worked out at 18 ± 1 min and the pKD turned out to be 8.2 ± 0.1.

`O=C(O)CN1CCN(CC(=O)O)CCN(CC(=O)N2CCN(CCNC(=O)c3ccc(-c4ccc5nccc(C(=O)NCC(=O)N6C[C@@H](F)C[C@H]6C(=O)c6nc7ccccc7o6)c5c4)cc3)CC2)CCN(CC(=O)O)CC1` [Compound 3BP-4810]: in data set [2], the “HL” value amounted to 38 ± 4 min and the pKD worked out at 8.5 ± 0.1.

In the case of `O=C(O)CN1CCN(CC(=O)O)CCN(CC(=O)N2CCN(CCNC(=O)c3ccc(-c4ccc5nccc(C(=O)NCC(=O)N6CCC[C@H]6C(=O)c6nc7ccccc7o6)c5c4)cn3)CC2)CCN(CC(=O)O)CC1` [Compound 3BP-4811], in data set [2], the “HL” value is given as 27 ± 12 min and the pKD amounted to 8.3 ± 0.2.
